Source: patent US9789066B2, “Process for making tablet using radiofrequency and lossy coated particles” (JOHNSON & JOHNSON CONSUMER INC., priority 2014, dated 2017)

Test: Dielectric measurement (e′, e″, Q value) by Slotted Line Method at 27 MHz
Format: physicochemical
Conditions: raw material
Text: The property of permittivity is the measure of the resistance to forming an electric field. For purposes of comparing materials in air, it is often convenient to describe the permittivity of material in air where the permittivity is more specifically called “relative permittivity” or ? r. This is a complex number represented by the following equation: ? r=e'-je'' where e' (the real portion of the complex number) is the dielectric constant (energy storage) and e'' (the imaginary portion of the complex number) is the dielectric loss or dissipation factor (energy dissipated as heat). The ratio of dielectric loss (e'') over the dielectric constant (e') is called the loss tangent (tan δ) or power factor. […] The Q value is affected by physical and chemical properties such as density (porosity/particle size), moisture (conductivity), temperature, and molecular polarizability. The measurements obtained by this method can eliminate the need to measure and evaluate these properties independently. […] The Q values were measured using a HP […] Slotted Line as sample holder (carriage removed) connected to Agilent […] to ports A and B (transmission mode). […] This process is referred to as the “Slotted Line Method.” Unless otherwise stated, the Slotted line method was used for the calculation of e', e'', and Q value herein with the frequency range set to 26-28 MHz (31 points resolution) and values of e' and e'' were recorded from the 27 MHz data point.

Loss Tangent: 0.0022
e′: 1.6214
e″: 0.0035
Structure (SMILES): OC[C@@H](O)[C@@H](O[C@H]1O[C@H](CO)[C@@H](O)[C@H](O)[C@H]1O)[C@H](O)[C@@H](O)CO [Maltitol (SweetPearl DC300), Maltitol]
